Read-outs that look alike come from different tables or passages of the source.
Key:
[1] = tested on: rat granule chymase; assay: Inhibition of rat granule chymase; format: biochemical; details: Table XIV, not time dependent
Experimental: (§1) ^a Inhibition was measured at 0.1M Hepes, 0.5M NaCl, pH 7.5 buffer,
(§2) 10% Me2 SO and 25° C. Suc--Phe--Leu--PheSBzl (0.14 mM) and
(§3) ZGly--ArgSBzl (0.06 mM) were used to measure chymase and tryptase activit

[2] = target: rat granule tryptase; assay: Inhibition of rat granule tryptase; format: biochemical; details: Table XIV
Experimental: as §1, §2, §3

[3] = target: T1, cathepsin G (Homo sapiens, UniProt P08311); assay: Inactivation of cathepsin G; format: biochemical
T1 construct: from tissue; host or cells: human leukocytes
T1 sequence (P08311 21-255): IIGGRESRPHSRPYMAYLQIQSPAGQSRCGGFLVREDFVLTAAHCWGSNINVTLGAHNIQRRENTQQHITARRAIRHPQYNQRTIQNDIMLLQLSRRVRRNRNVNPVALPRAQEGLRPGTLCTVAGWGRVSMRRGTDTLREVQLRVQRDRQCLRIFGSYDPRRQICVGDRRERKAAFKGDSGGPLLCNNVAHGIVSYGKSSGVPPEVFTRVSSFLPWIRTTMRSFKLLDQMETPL
Experimental: (§9) Inactivation rates of serine proteases by substituted isocoumarins were measured by the incubation method. An aliquot of inhibitor (25 or 50 μl) in Me2 SO was added to a buffered enzyme solution (0.01-2.3 μM) to initiate the inactivation. Aliquots (50 μl) were withdrawn at various intervals and the residual enzymatic activity was measured. Me2 SO concentration in the reaction mixture was 8-12% (v/v). 0.1 Hepes, 0.01M CaCl2, pH 7.5 buffer was utilized for trypsin and coagulation enzymes. 0.1M Hepes, 0.5M NaCl, pH 7.5 was utilized for other serine proteases. […] Peptide thioesters or peptide nitroanilides with appropriate sequence were used as substrates for various serine proteases. All peptide thioester hydrolysis rates were measured with assay mixtures containing 4,4'-dithiodipyridine (ε324 =19800M^-1 cm^-1 ; Grasetti & Murray, Arch. Biochem. Biophys. 119, pp 41-49 (1967)). Peptide 4-nitroanilide nitroanilide hydrolysis was measured at 410 nm (ε410 =8800M^-1 cm^-1 ; Erlanger et al., Arch. Biochem. Biophys. 95, pp 271-278 (1961)). First order inactivation rate constant (kobs) were obtained from plots of ln (vt /vo) vs time, and the correlation coefficients were greater than 0.98.
(§10) ^a Inactivation rates were measured at 0.1M Hepes, 0.5 NaCl, pH 7.5,
(§11) 8-12% Me2 SO and 25° C. by incubation method.
and assayed for remaining activity.
(§12) ^a Inhibition rates were measured in 0.1M Hepes, 0.05M NaCl, pH 7.5
buffer, 8-9% Me2 SO and at 25° C.
Me2 SO, pH 7,5 and at 25° C.
(§13) ^a Inhibition was measured in 0.1M Hepes, 0.5M NaCl, pH 7.5 buffer,
(§14) 5-10% Me2 SO and at 25° C. Suc--Val--Pro--Phe--NA (0.48 mM)
(§15) was used as the substrate for chymotrypsin and cat G.

[4] = target: T2, chymotrypsin (Bos taurus, UniProt P00766); assay: Inactivation of chymotrypsin; format: biochemical, bovine; details: pH 7.5, 25° C, read-out: kobs/[I]
[5] = target: T2, chymotrypsin; assay: Reactivation of inhibited chymotrypsin; format: biochemical, bovine
Experimental: (§4) ^a Inhibition was performed at 0.1M Hepes, 0.5M NaCl, pH 7.5 buffer,
(§5) 10% Me2 SO and 25° C. Reactivation was carried out in the
presence of 0.36M of NH2 OH, and occurred immediately after the
^b Enzyme activity was measured after two days.

[6] = tested on: rat granule chymase; assay: Reactivation of inhibited rat granule chymase; format: biochemical; details: [I] 39 μM; +NH2OH 0.36M
Experimental: as §4, §5
presence of 0.36M of NH2 OH, and occurred immediately after the […]

[7] = target: T3, human plasmin (Homo sapiens, UniProt P00747); assay: Inactivation rate of human plasmin; format: biochemical; details: Table IX; 0.01M CaCl2, pH 7.5, 25° C; [I] 8.3-41 μM; read-out: kobs/[I]
T3 construct: human plasmin; from tissue; host or cells: human plasma
T3 sequence (P00747 581-810 limits assumed): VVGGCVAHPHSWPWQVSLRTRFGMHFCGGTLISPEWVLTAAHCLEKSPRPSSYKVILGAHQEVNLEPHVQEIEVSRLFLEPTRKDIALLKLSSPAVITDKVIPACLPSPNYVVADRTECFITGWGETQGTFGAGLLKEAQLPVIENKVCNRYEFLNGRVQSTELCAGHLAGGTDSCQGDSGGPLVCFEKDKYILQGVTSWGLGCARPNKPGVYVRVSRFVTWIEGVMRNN
T3 sequence (P00747 97-580 partner limits assumed): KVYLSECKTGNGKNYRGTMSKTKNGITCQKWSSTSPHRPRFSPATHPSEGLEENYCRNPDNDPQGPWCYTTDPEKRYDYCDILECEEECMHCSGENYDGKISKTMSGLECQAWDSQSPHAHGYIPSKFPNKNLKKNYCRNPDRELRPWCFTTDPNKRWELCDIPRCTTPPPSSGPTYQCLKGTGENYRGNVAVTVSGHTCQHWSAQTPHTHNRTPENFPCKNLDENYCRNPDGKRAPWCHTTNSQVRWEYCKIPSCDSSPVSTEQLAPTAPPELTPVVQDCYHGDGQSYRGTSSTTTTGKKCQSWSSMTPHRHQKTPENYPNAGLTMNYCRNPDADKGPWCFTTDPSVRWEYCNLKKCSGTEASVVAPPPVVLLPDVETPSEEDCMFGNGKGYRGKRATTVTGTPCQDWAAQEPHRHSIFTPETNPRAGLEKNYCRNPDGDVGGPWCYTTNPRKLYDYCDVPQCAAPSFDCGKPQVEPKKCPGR

[8] = target: T4, human leukocyte elastase (HLE) (Homo sapiens, UniProt P08246); assay: Inactivation of human leukocyte elastase (HLE); format: biochemical; details: Table X; pH 7.5, 25° C; [I] 2.1-42 μM; read-out: kobs/[I]
T4 construct: from tissue; host or cells: human leukocytes (from the name)
T4 sequence (P08246 30-267): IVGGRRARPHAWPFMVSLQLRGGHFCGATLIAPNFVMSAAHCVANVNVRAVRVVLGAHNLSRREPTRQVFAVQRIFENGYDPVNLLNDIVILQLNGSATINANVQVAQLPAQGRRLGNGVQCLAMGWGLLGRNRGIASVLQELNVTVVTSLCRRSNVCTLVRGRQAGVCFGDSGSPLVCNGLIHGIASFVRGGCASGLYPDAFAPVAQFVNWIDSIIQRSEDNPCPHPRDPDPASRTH
Experimental: as §9, §10, §11, §12
buffer, 8-9% Me2 SO and at 25° C.
(§16) ^a Inhibition constants were in 0.1M Hepes, 0.5M NaCl, pH 7.5 buffer,
8-9% Me2 SO and at 25° C.
(§17) ^a Inhibition rates were measured in 0.1M Hepes, 0.5M NaCl, 2.5%
Me2 SO, pH 7,5 and at 25° C.
as §13, §14, §15
(§18) ^a Inhibition rates were measured in 0.1M Hepes, 0.5M NaCl, pH 7.5

[9] = target: T5, bovine thrombin (Bos taurus, UniProt P00735); assay: Inactivation rate of bovine thrombin; format: biochemical; details: Table VIII; pH 7.5, 25° C; [I] 1.2-54 μM; read-out: kobs/[I]
T5 construct: bovine thrombin
Summary of the method: (§6)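 Incubating enzyme with inhibitor in Ca2+-containing Hepes, pH 7.5, 8-12% Me2SO, 25° C, then sampling over time, gave residual activity measured spectrophotometrically with thioester or nitroanilide substrates; kobs was taken from ln(vt/vo) plots.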

[10] = target: T6, rat skin tryptase (Rattus norvegicus, UniProt P27435); assay: Inactivation rate of rat skin tryptase; format: biochemical; details: pH 7.5, Table IX; pH 7.5, 25° C; [I] 0.42-0.51 μM; read-out: kobs/[I]
T6 construct: from tissue; host or cells: rat skin
T6 sequence (P27435 29-273): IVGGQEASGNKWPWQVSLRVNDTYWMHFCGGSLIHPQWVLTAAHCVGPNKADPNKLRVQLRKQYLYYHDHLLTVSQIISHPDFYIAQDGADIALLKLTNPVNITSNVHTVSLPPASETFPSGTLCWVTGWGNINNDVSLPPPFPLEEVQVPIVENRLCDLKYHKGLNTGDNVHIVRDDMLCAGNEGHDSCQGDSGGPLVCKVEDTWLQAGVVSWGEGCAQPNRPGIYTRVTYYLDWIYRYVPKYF
Summary of the method: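 Rat skin tryptase incubated with isocoumarin inhibitor in 25 mM phosphate, 0.5 M NaCl, 1 mM EDTA, pH 7.5, 8-9% Me2SO, 25 °C; aliquots withdrawn over time for residual activity on ZArg-SBzl (0.07 mM) with 4,4'-dithiodipyridine (0.33 mM). First-order kobs from ln(vt/vo) versus time.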

[11] = tested on: human skin tryptase; assay: Inhibition of human skin tryptase; format: biochemical; details: Table IX
Experimental: (§7) Inactivation rates of serine proteases by substituted isocoumarins were measured by the incubation method. An aliquot of inhibitor (25 or 50 μl) in Me2 SO was added to a buffered enzyme solution (0.01-2.3 μM) to initiate the inactivation. Aliquots (50 μl) were withdrawn at various intervals and the residual enzymatic activity was measured. Me2 SO concentration in the reaction mixture was 8-12% (v/v). 0.1 Hepes, 0.01M CaCl2, pH 7.5 buffer was utilized for trypsin and coagulation enzymes. 0.1M Hepes, 0.5M NaCl, pH 7.5 was utilized for other serine proteases. The inhibitor concentrations are shown in all the tables. Peptide thioesters or peptide nitroanilides with appropriate sequence were used as substrates for various serine proteases. All peptide thioester hydrolysis rates were measured with assay mixtures containing 4,4'-dithiodipyridine (ε324 =19800M^-1 cm^-1; Grasetti & Murray, Arch. Biochem. Biophys. 119, pp 41-49 (1967)). Peptide 4-nitroanilide nitroanilide hydrolysis was measured at 410 nm (ε410 =8800M^-1 cm^-1; Erlanger et al., Arch. Biochem. Biophys. 95, pp 271-278 (1961)). First order inactivation rate constant (kobs) were obtained from plots of ln (vt /vo) vs time, and the correlation coefficients were greater than 0.98.
(§8) ^a Inhibition rates were measured in 0.1M Hepes, 0.01M CaCl2, pH
7.5 buffer for human plasmin; 25 mM Phosphate, 0.5M NaCl, 1 mM EDTA, pH
7.5 buffer for rat skin tryptase and 0.1M Hepes, 0.5M NaCl, pH 7.5 for
human lung tryptase, human skin tryptase and rt-PA. All enzymes were
assayed with ZArg-SBzl (0.07 mM) in the presence of 4,4dithiodipyridine
(0.33 mM). Reaction mixtures contained 8% Me2 SO and assays were […]

[12] = target: T7, human thrombin (Homo sapiens, UniProt P00734); assay: Inactivation rate of human thrombin; format: biochemical; details: Table VIII; pH 7.5, 25° C; [I] 1.2-54 μM; read-out: kobs/[I]
T7 construct: human thrombin
Summary of the method: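 Incubation method: enzyme (0.01-2.3 μM) mixed with inhibitor in 0.1M Hepes, 0.01M CaCl2, pH 7.5, 8% Me2SO, 25° C; residual activity sampled over time with peptide thioester or 4-nitroanilide substrates. kobs from ln(vt/vo) vs time plots.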

[13] = target: human lung tryptase; assay: Inactivation rate of human lung tryptase; format: biochemical; details: Table IX; pH 7.5, 25° C; [I] 0.42-0.47 μM
Summary of the method: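 Incubation method in 0.1M Hepes, 0.5M NaCl, pH 7.5, 8% Me2SO, 25° C; inhibitor added to enzyme, aliquots withdrawn over time for residual activity. Substrate ZArg-SBzl (0.07 mM) with 4,4'-dithiodipyridine (0.33 mM). kobs from ln(vt/vo) vs time plots.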

[14] = target: T8, bovine trypsin (Bos taurus, UniProt P00760); assay: Inactivation rate of bovine trypsin; format: biochemical; details: Table VIII; pH 7.5, 25° C; [I] 1.1-4.6 μM; read-out: kobs/[I]
T8 sequence (P00760 24-246): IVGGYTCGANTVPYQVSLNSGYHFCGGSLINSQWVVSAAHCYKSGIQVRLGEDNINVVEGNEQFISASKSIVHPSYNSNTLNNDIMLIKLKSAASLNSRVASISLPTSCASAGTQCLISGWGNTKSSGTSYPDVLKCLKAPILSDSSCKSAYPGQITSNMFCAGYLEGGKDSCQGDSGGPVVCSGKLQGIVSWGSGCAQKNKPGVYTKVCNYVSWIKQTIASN
Summary of the method: as §6

[15] = target: recombinant human tissue plasminogen activator (Homo sapiens, UniProt P00750); assay: Inactivation rate of recombinant human tissue plasminogen activator; format: biochemical; details: pH 7.5, Table IX; pH 7.5, 25° C; [I] 3.5-5.0 μM; read-out: kobs/[I]
Sequence of recombinant human tissue plasminogen activator (P00750 36-562): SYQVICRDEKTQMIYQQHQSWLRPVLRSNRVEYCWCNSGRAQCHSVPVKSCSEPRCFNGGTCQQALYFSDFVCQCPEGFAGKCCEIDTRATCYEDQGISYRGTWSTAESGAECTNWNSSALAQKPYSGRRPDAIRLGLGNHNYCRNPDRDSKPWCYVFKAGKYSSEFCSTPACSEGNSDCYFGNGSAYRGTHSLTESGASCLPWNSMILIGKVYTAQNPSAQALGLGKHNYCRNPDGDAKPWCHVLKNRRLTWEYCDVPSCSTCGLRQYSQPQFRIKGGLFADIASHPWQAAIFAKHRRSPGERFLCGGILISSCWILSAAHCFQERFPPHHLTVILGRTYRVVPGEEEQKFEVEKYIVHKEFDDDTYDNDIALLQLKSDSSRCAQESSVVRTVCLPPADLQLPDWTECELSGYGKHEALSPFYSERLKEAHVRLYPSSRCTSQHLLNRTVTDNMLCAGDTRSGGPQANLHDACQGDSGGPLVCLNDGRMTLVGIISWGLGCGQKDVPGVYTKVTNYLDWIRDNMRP
Summary of the method: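 Incubation method: enzyme mixed with inhibitor in Me2SO (8–12% v/v) in 0.1M Hepes, 0.5M NaCl, pH 7.5; aliquots withdrawn over time for residual activity with ZArg-SBzl (0.07 mM) plus 4,4'-dithiodipyridine (0.33 mM). kobs taken from ln(vt/vo) versus time plots.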

[16] = Spontaneous hydrolysis in Hepes buffer; format: physicochemical; details: 0.1 Hepes, 0.5M NaCl, pH 7.5, 9% Me2SO, 25° C
Experimental: ^a Conditions were 0.1 Hepes, 0.5M NaCl, pH 7.5 and 9% Me2 SO at
25° C. Spontaneous hydrolysis rates were measured
spectrophotometrically by monitoring the decrease in absorbance due to th
isocoumarin ring system (wavelength 335-380 nm) using the firstorder rate

[17] = target: T9, porcine pancreatic elastase (PPE) (Sus scrofa, UniProt P00772); assay: Inactivation of porcine pancreatic elastase (PPE); format: biochemical; details: Table X; after 20 min incubation
T9 construct: from tissue; host or cells: porcine pancreas (from the name)
T9 sequence (P00772 27-266): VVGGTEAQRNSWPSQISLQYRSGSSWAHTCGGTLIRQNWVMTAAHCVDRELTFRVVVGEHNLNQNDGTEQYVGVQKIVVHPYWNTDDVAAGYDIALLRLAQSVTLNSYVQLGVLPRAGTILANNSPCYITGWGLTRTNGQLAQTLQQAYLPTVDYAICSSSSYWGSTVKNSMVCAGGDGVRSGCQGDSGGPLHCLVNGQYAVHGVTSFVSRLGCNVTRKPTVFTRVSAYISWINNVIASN
Experimental: as §9, §10, §11, §12
buffer, 8-9% Me2 SO and at 25° C.
as §16
8-9% Me2 SO and at 25° C.
as §17
Me2 SO, pH 7,5 and at 25° C.
as §13, §14, §15, §18

[18] = target: T10, human factor XIIa (Homo sapiens, UniProt P00748); assay: Inactivation rate of human factor XIIa; format: biochemical; details: Table VIII; pH 7.5, 25° C; [I] 3.6-4.9 μM; read-out: kobs/[I]
T10 construct: human factor XIIa
T10 sequence (P00748 373-615 limits assumed): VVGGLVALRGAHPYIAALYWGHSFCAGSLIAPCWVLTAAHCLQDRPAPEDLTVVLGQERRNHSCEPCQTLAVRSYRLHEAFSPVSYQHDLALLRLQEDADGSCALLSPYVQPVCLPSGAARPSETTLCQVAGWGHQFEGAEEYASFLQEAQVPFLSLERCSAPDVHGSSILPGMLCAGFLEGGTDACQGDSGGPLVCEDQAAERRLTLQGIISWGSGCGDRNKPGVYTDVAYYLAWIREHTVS
T10 sequence (P00748 20-372 partner limits assumed): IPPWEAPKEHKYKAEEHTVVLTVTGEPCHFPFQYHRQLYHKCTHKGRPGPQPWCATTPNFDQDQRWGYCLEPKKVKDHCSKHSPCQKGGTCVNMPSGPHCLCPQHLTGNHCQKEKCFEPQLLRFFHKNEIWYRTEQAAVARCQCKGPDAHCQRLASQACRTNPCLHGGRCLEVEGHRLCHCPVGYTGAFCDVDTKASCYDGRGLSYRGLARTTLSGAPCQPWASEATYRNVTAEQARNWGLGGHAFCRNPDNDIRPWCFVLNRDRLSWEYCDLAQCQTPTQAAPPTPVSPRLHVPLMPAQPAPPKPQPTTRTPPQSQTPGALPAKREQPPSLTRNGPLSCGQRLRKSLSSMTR
Summary of the method: as §6

[19] = target: T11, human factor Xa (Homo sapiens, UniProt P00742); assay: Inactivation rate of human factor Xa; format: biochemical; details: Table VIII; pH 7.5, 25° C; [I] 3.6-44 μM; read-out: kobs/[I]
T11 construct: human factor Xa
T11 sequence (P00742 235-488 limits assumed): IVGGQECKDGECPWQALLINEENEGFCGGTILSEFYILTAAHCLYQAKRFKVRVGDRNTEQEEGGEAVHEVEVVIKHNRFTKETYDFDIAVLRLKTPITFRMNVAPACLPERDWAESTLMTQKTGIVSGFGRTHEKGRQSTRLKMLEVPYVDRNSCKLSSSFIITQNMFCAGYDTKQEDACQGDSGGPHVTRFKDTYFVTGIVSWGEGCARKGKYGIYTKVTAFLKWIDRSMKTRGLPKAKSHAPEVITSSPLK
T11 sequence (P00742 41-179 partner limits assumed): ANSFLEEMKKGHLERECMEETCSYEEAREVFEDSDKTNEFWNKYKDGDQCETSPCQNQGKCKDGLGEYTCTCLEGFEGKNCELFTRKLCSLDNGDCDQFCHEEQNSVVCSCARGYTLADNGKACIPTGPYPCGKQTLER
Experimental: as §7
^a Conditions were as 0.1M Hepes, 0.01M CaCl2, pH 7.5 and 8-12%
Me2 SO and 25° C. Rate constants were measured by incubation
method unless otherwise noted. An aliquot of inhibitor was added to an
enzyme solution and aliquots removed with time and assayed for remaining
enzymatic activity. Firstorder rate constants, kobs were obtained
from the plots of ln(vt /vo) versus time.
as §8
7.5 buffer, 8% Me2 SO and at 25° C.

[20] = [I] 39 μM, in buffer, after two days
[21] = [I] 78 μM, in buffer, after two days

Structure (SMILES) | % of Enzyme Activity Reactivated ([5]; [I] 39 μM, +NH2OH 0.36M) [%] | % of Enzyme Activity Reactivated [5, 20] [%] | % of Enzyme Activity Reactivated ([5]; [I] 78 μM, +NH2OH 0.36M) [%] | % of Enzyme Activity Reactivated [5, 21] [%] | % of Enzyme Activity Reactivated [6] | kinact/KI [9] [M⁻¹ s⁻¹] | kinact/KI [10] [M⁻¹ s⁻¹] | kinact/KI [12] [M⁻¹ s⁻¹] | kobs/[I] [13] | kinact/KI [14] [M⁻¹ s⁻¹] | kinact/KI [15] [M⁻¹ s⁻¹] | t1/2 for spontaneous hydrolysis [16] [h] | also measured
O=C(CCCC[C@@H]1SC[C@@H]2NC(=O)N[C@@H]21)NCCCCCC(=O)Nc1ccc2c(Cl)c(OCCc3ccccc3)oc(=O)c2c1 [7-(6-biotinylaminocaproyl)amino-4-chloro-3-(2-phenylethoxy)isocoumarin] | 50 | 6 | 40 | 0 | 30-50% |  |  |  |  |  |  |  | % of inhibition ([1]; [I] 0.078 mM): 30-50%; kobs/[I] ([2]; [I] 0.078 mM): 6 to 12 M⁻¹ s⁻¹; inhibition ([3]; Table XIII, [I] 75-400 μM): 13%; kinact/KI ([4]; Table XIII, [I] 20-400 μM): 1080 M⁻¹ s⁻¹
O=C(CCCC[C@@H]1SC[C@@H]2NC(=O)N[C@@H]21)Nc1ccc2c(Cl)c(OCCc3ccccc3)oc(=O)c2c1 [7-biotinylamino-4-chloro-3-(2-phenylethoxy)isocoumarin] | 85 | 51 | 79 | 7 | 100% |  |  |  |  |  |  |  | % of inhibition ([1]; [I] 0.2 mM): 10-20%; kobs/[I] ([2]; [I] 0.2 mM): 2 to 3 M⁻¹ s⁻¹
N=C(N)SCCCOc1oc(=O)c2cc(NC(=O)NCc3ccccc3)ccc2c1Cl [PhCH2 NHCONH-CiTPrOIC, 7-(benzylcarbamoylamino)-4-chloro-3-(3-isothiureidopropoxy)isocoumarin] |  |  |  |  |  | 420 | 270000 | 700 | 190,000 M^-1 s^-1 | 51000 | 18000 | 2.47 | kinact/KI [7]: 5120 M⁻¹ s⁻¹; kinact/KI [8]: 250 M⁻¹ s⁻¹; percentage of inhibition ([11]; not time dependent, at 0.34-5.0 μM): 68%; kinact/KI ([3]; Table X, pH 7.5, 25° C, [I] 33-46 μM, read-out: kobs/[I]): 50 M⁻¹ s⁻¹; kinact/KI ([4]; Table X, [I] 0.9-43 μM): 13400 M⁻¹ s⁻¹; percentage of inhibition [17]: 9%
N=C(N)SCCCOc1oc(=O)c2cc(NC(=O)Nc3ccccc3)ccc2c1Cl [PhNHCONH-CiTPrOIC, 7-(phenylcarbamoylamino)-4-chloro-3-(3-isothiureidopropoxy)isocoumarin] |  |  |  |  |  | 970 | 250000 | 1840 | 140,000 M^-1 s^-1 | 63000 | 19000 | 2.47 | kinact/KI [18]: 7720 M⁻¹ s⁻¹; kobs/[I] ([11]; pH 7.5, 25° C, [I] 0.34-0.39 μM): 38,000 M^-1 s^-1; kinact/KI [19]: 50 M⁻¹ s⁻¹
